Data on one molecule can be found in PMC13242511, “Disrupting Notch signalling by a small molecule inhibiting dihydroorotate dehydrogenase activity” (Scientific Reports, 2026).

Format in all cases: cell-based
Test [1] deals with T-ALL and breast cancer cell lines. Kind of test: Growth inhibition in tumour cell lines (panel, cell lines not named singly). The note with it: summary Fig. 8E. On the set-up: key to tumor cell growth: + indicates that the compound had an effect; -: − indicates that there was no significant effect in the respective assay. An excerpt:
We next investigated whether compounds A-E affected growth and viability of cell lines from T-cell acute lymphoblastic leukaemia (T-ALL) and breast cancer, two tumour types in which elevated Notch signalling has been implicated in tumorigenesis. […] When testing analogues of compounds B and C, five of the seven B analogues and one of the two C analogues produced dose–response curves and IC50s, which however were higher compared to the original hits (Supplemental Fig. 5A; IC50s are presented in Supplemental Table 6).
Compounds were spotted on white 384-well tissue culture plates (Greiner, cat #781080) using an Echo 525 Acoustic liquid handler (Labcyte). Cells were grown to 80% confluence, detached if required, counted and 20 µl containing 2000–4000 cells per well was then seeded in each well and cultivated for three (4,000 cells seeded) and six days (2,000 cells seeded). […] Luciferase activity (reading out metabolic activity) was determined using the CellTiter-Glo 2.0 kit (CTG, Promega, cat #G9242) following the manufacturer’s instructions and luminescence was measured on a SpectraMaxi3 or Varioscan plate reader (Molecular Devices, Thermofisher).

For test [2], the system named is T-ALL cells (Jurkat, RPMI-8402). Kind of test: Three dose response gene expression analysis (qRT-PCR). The settings on record: T-ALL cells; 0.1, 1 and 10 µM, 24 h. As to the method: (§1) Total RNA from cell lines was isolated using the RNeasy Mini kit (cat #74104, Qiagen), according to the manufacturer’s instructions. qRT-PCR was performed as described elsewhere[51] with some minor modifications: RNA was reverse transcribed to cDNA using iScript Reverse Transcription Supermix (cat # 1708841, Bio-rad). cDNA was then diluted 1:5 in nuclease free H20. qRT-PCR was performed on a C1000 Touch thermal cycler (Bio-rad) and gene expression was detected with SsoAdvanced Universal SYBR Green Supermix (cat # 1725274, Bio-rad). Gene expression was determined by normalizing to GAPDH mRNA expression levels and fold expression change was calculated using the ΔΔCT method (ΔΔCT = ΔCt sample − Δct control). Primers used in qPCR are shown in Supplemental Table 9.
(§2) Adherent breast cancer cells were seeded in 24-well cell culture plates (ThermoFisher, Nunc, Delta surface, cat #144530) and T-ALL cells growing in suspension (Jurkat, RPMI-8402) were seeded in non-adherent 24-well plates (ThermoFisher, Nunc, cat […]). 60.000 cells were seeded and treated with 0.1, 1 and 10 µM of each compound. […] Cells were harvested 24 h post treatment and RNA isolation and gene expression analysis (qRT-PCR) was performed as described above.
On the technique in general: In qPCR the cycle at which signal appears reflects the starting amount.

For another test, the system named is MDA-MB-231 cells. Described as above. The note with it: 0.1, 1 and 10 µM, 24 h. As to the method:
as §1, §2

The next test deals with γ-secretase complex (Homo sapiens, UniProt P49768). Briefly: APP-C99 counter assay (GSI reporter assay). On the set-up: AUC APP: scale not given here. A digest of the protocol:
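γ-secretase activity reported via APP cleavage driving firefly luciferase, normalized to renilla. After 24 h transfection then 24 h compound exposure, signals were read (0.1 s integration). Triplicate dose–responses fitted by variable-slope four-parameter model for IC50; area under curve also derived.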

A further test deals with NOTCH1. Kind of test: Western blot analysis of S3-cleaved NOTCH1 (a-N1-V1744). The settings on record: Western blot quantification, Supplemental Figure 4K. As to the method: Cells were washed in ice-cold PBS and incubated for 30 min on ice with RIPA cell lysis buffer (Thermofisher, cat #89900) containing protease and phosphatase inhibitors (Thermofisher, cat #78442), scraped off and homogenized using a 25G syringe, and subsequently centrifugated for 10 min at > 13,000xg. […] After electrophoresis, gels were placed directly onto a TransBlot Turbo PVDF or nitrocellulose membrane (Bio-rad, cat #1704157 and cat #1704159) and transferred using the “HIGH MW” protocol (Bio-Rad). Subsequently, membranes were blocked for 1 h at room temperature using Clear Milk Blocking Buffer (ThermoFisher, cat #37587) supplemented with 0.1% Tween20 (Sigma-Aldrich, cat #P1379). Detection of antibody binding was performed by using Clarity Western ECL-Substrate (Bio-rad, cat #1705060S). Beta-Actin protein signals were used as a loading control. Western blot membranes were in some experiments stripped after development (indicated in the figure in each respective case) by washing the membranes twice for 10 min in PBS, followed by incubation in membranes in western blot stripping buffer (ThermoFisher, cat #21059) for 30 min at room temperature and gentle agitation. Stripped membranes were washed twice with PBS and incubated for 30 min in blocking buffer before incubation with primary antibody. A list of all antibodies used in this study is provided in Supplemental Table 6. Uncropped western blot images are provided in […]. Protein expression levels of western blot bands were quantified using Fiji (V.2.16) with beta-Actin signals for normalisation (Supplemental Table 8). Uncropped western blot images are provided in Supplemental Fig. 10.
For orientation: In western blotting, separated proteins are transferred to a membrane and probed.

As for `Cc1ccc2[nH]c3c(c2c1)CCOC31CCN(Cc2ccccc2-c2ccccc2)CC1` [compound B], in test [1], the tumor cell growth result is given as “+”. Further, the “HES1 and c-MYC expression” value in test [2] is reported as “dose-dependent downregulation”. Moreover, in the test on MDA-MB-231 cells, the HES4 expression entry is recorded as “reduced” and the “transcript levels of the Notch ligand Jagged1” value was “reduced”. In addition, the remaining activity at 10 µM at γ-secretase complex (24 h, 10µM, APP-C99 counter assay, read-out: 3p-DR in % of DMSO counter) was determined as 113%. Further, the remaining activity at 25 µM at γ-secretase complex (24 h, 25µM, APP-C99 counter assay, read-out: 3p-DR in % of DMSO counter) came out at 149%. The remaining activity at […] on γ-secretase complex (24 h, 1,25µM, APP-C99 counter assay, read-out: 3p-DR in % of DMSO counter) is 100%. For the same molecule, the “AUC APP” value on γ-secretase complex (area under the 14-point dose-response curve, replicates averaged) was 643.8. Also, in the test with NOTCH1, the “V1744 (activated N1) band intensity” value turned out to be 10802.4 and the “V1744 normalised to beta-actin signals” value was found to be 0.6. Also, in the test with NOTCH1 (DMSO = 1), the “V1744, DMSO as reference” value is recorded as 0.4585.
